Results published in publication PMC6364417, “Kinase inhibitor library screening identifies synergistic drug combinations effective in sensitive and resistant melanoma cells” (Journal of Experimental & Clinical Cancer Research : CR, 2019).

Tests used:
Assay in all cases: Kinase inhibitor library screening, PrestoBlue cell viability, 1 or 10 μM, 72 h
[1] = tested on: A375-XP cells (Vemurafenib-resistant); details: for Cell viability in kinase inhibitor library screening, A375 XP, 1μΜ / Cell viability in kinase inhibitor library screening, A375 XP, 10μΜ / cell viability, A375 XP, 1μΜ / cell viability, A375 XP, 10μΜ: 72 h; for cell viability, A375 XP, 1μΜ / cell viability, A375 XP, 10μΜ: in %
IGR37 cells (parental) = tested on: IGR37 cells (parental)
501Mel cells (parental) = details: 72 h
Method in brief: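 Readout: PrestoBlue signal on a monochromator plate reader, given as percent viability relative to untreated controls. Parental and drug-resistant (Vemurafenib XP, Dabrafenib GP) sublines were tested; at least duplicates per line.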

A375 cells (parental) = details: for Cell viability in kinase inhibitor library screening, A375 Parental, 10μΜ / Cell viability in kinase inhibitor library screening, A375 Parental, 1μΜ / cell viability, A375 Parental, 1μΜ / cell viability, A375 Parental, 10μΜ: 72 h; for cell viability, A375 Parental, 1μΜ / cell viability, A375 Parental, 10μΜ: in %
[2] = tested on: IGR37-GP cells (Dabrafenib-resistant); details: for Cell viability in kinase inhibitor library screening, IGR37 GP, 10μΜ / Cell viability in kinase inhibitor library screening, IGR37 GP, 1μΜ / cell viability, IGR37 GP, 10μΜ / cell viability, IGR37 GP, 1μΜ: 72 h; for Cell viability in kinase inhibitor library screening, IGR37 GP, 1μΜ / cell viability, IGR37 GP, 1μΜ: in %
[3] = tested on: 501Mel-XP cells (Vemurafenib-resistant); details: 72 h; for Cell viability in kinase inhibitor library screening, 501Mel XP, 1μΜ / Cell viability in kinase inhibitor library screening, 501Mel XP, 10μΜ / cell viability, 501Mel XP, 1μΜ / cell viability, 501Mel XP, 10μΜ: in %
[4] = tested on: A375-GP cells (Dabrafenib-resistant); details: for Cell viability in kinase inhibitor library screening, A375 GP, 1μΜ / Cell viability in kinase inhibitor library screening, A375 GP, 10μΜ / cell viability, A375 GP, 1μΜ / cell viability, A375 GP, 10μΜ: 72 h; for cell viability, A375 GP, 1μΜ / cell viability, A375 GP, 10μΜ: in %
[5] = tested on: 501Mel-GP cells (Dabrafenib-resistant); details: 72 h
[6] = tested on: IGR37-XP cells (Vemurafenib-resistant); details: for Cell viability in kinase inhibitor library screening, IGR37 XP, 10μΜ / Cell viability in kinase inhibitor library screening, IGR37 XP, 1μΜ / cell viability, IGR37 XP, 10μΜ / cell viability, IGR37 XP, 1μΜ: 72 h; for Cell viability in kinase inhibitor library screening, IGR37 XP, 1μΜ / cell viability, IGR37 XP, 1μΜ: in %
[7] = IGR37 Parental, 1μΜ, 72 h, in %

Compound | Cell viability in kinase inhibitor library screening, A375 XP, 1μΜ [1] | Cell viability in kinase inhibitor library screening, A375 XP, 10μΜ [1] | Cell viability in kinase inhibitor library screening, IGR37 Parental, 1μΜ (IGR37 cells (parental); [7]) | Cell viability in kinase inhibitor library screening, IGR37 Parental, 10μΜ (IGR37 cells (parental); IGR37 Parental, 72 h, in %) | Cell viability in kinase inhibitor library screening, 501Mel Parental, 1μΜ (501Mel cells (parental); 501Mel Parental, 1μΜ, in %) | Cell viability in kinase inhibitor library screening, 501Mel Parental, 10μΜ (501Mel cells (parental); 501Mel Parental, in %) | Cell viability in kinase inhibitor library screening, A375 Parental, 10μΜ (A375 cells (parental)) | Cell viability in kinase inhibitor library screening, A375 Parental, 1μΜ (A375 cells (parental)) | Cell viability in kinase inhibitor library screening, IGR37 GP, 10μΜ [2] [%] | Cell viability in kinase inhibitor library screening, IGR37 GP, 1μΜ [2] | Cell viability in kinase inhibitor library screening, 501Mel XP, 1μΜ [3] | Cell viability in kinase inhibitor library screening, 501Mel XP, 10μΜ [3] | Cell viability in kinase inhibitor library screening, A375 GP, 1μΜ [4] | Cell viability in kinase inhibitor library screening, A375 GP, 10μΜ [4] | Cell viability in kinase inhibitor library screening, 501Mel GP, 1μΜ ([5]; 501Mel GP, 1μΜ, in %) | Cell viability in kinase inhibitor library screening, 501Mel GP, 10μΜ ([5]; 501Mel GP, in %) | Cell viability in kinase inhibitor library screening, IGR37 XP, 10μΜ [6] [%] | Cell viability in kinase inhibitor library screening, IGR37 XP, 1μΜ [6] | further results
COC(=O)Nc1ccc(-c2nc(N3CCOCC3)c3cnn(C4CCN(Cc5cccnc5)CC4)c3n2)cc1 [WYE-687] | 59.8 | 19.2 | 75.9 | 26.2 | 65.3 | 9.6 | 21.5 | 74.1 | 24.9 | 77.7 | 83.5 | 7.5 | 67.7 | 19.9 | 55.7 | 10.7 | 7 | 62.5 | –
CNC(=O)Nc1ccc(-c2nc(N3CC4CCC(C3)O4)c3cnn(C4CCC5(CC4)OCCO5)c3n2)cc1 [WYE-125132] | 19.4 | 17.0 | 27.6 | 22.1 | 17.3 | 5.8 | 19.3 | 22.3 | 34 | 43.3 | 18.5 | 5.5 | 22.4 | 15.7 | 16.3 | 8.1 | 12.8 | 30.9 | –
C=CC(=O)Nc1cccc(Oc2nc(Nc3ccc(N4CCN(C)CC4)cc3)ncc2Cl)c1 [WZ3146] | – | – | – | – | – | – | – | – | – | – | – | – | – | – | – | – | – | – | cell viability, A375 XP, 1μΜ [1]: 94.3; cell viability, A375 XP, 10μΜ [1]: 20.1; cell viability, IGR37 Parental, 1μΜ (IGR37 cells (parental); [7]): 96.7; cell viability, IGR37 Parental, 10μΜ (IGR37 cells (parental); IGR37 Parental, 72 h, in %): 56.4; cell viability, 501Mel Parental, 10μΜ (501Mel cells (parental); 501Mel Parental, in %): 1.1; cell viability, A375 Parental, 1μΜ (A375 cells (parental)): 87.2; cell viability, A375 Parental, 10μΜ (A375 cells (parental)): 30.7; cell viability, IGR37 GP, 10μΜ [2]: 39%; cell viability, IGR37 GP, 1μΜ [2]: 92.8; cell viability, 501Mel XP, 1μΜ [3]: 78.6; cell viability, 501Mel XP, 10μΜ [3]: 0.0384; cell viability, A375 GP, 1μΜ [4]: 82.9; cell viability, A375 GP, 10μΜ [4]: 22.9; cell viability, 501Mel GP, 1μΜ ([5]; 501Mel GP, 1μΜ, in %): 102.6; cell viability, 501Mel GP, 10μΜ ([5]; 501Mel GP, in %): 53.7; cell viability, IGR37 XP, 10μΜ [6]: 7%; cell viability, IGR37 XP, 1μΜ [6]: 73.3
C=CC(=O)Nc1cccc(Oc2nc(Nc3ccc(N4CCN(C)CC4)cc3OC)ncc2Cl)c1 [WZ4002] | – | – | – | – | – | – | – | – | – | – | – | – | – | – | – | – | – | – | viability at 1 µM ([1]; Homo sapiens, A-375, 72 h, read-out: cell viability, A375 XP, 1μΜ): 104%; viability at 10 µM ([1]; Homo sapiens, A-375, 72 h, read-out: cell viability, A375 XP, 10μΜ): 6%; viability at 1 µM (IGR37 cells (parental); Homo sapiens, IGR-37, 72 h, read-out: cell viability, IGR37 Parental, 1μΜ): 101%; viability at 10 µM (IGR37 cells (parental); Homo sapiens, IGR-37, 72 h, read-out: cell viability, IGR37 Parental, 10μΜ): 2%; viability at 1 µM (501Mel cells (parental); Homo sapiens, read-out: cell viability, 501Mel Parental, 1μΜ): 107%; viability at 10 µM (501Mel cells (parental); Homo sapiens, read-out: cell viability, 501Mel Parental, 10μΜ): -0.0492%; viability at 1 µM (A375 cells (parental); Homo sapiens, A-375, 72 h, read-out: cell viability, A375 Parental, 1μΜ): 103%; viability at 10 µM (A375 cells (parental); Homo sapiens, A-375, 72 h, read-out: cell viability, A375 Parental, 10μΜ): 23.8%; viability at 1 µM ([2]; Homo sapiens, IGR-37, 72 h, read-out: cell viability, IGR37 GP, 1μΜ): 91.8%; viability at 10 µM ([2]; Homo sapiens, IGR-37, 72 h, read-out: cell viability, IGR37 GP, 10μΜ): 16.7%; viability at 1 µM ([3]; Homo sapiens, read-out: cell viability, 501Mel XP, 1μΜ): 104%; viability at 10 µM ([3]; Homo sapiens, read-out: cell viability, 501Mel XP, 10μΜ): -0.3%; viability at 1 µM ([4]; Homo sapiens, A-375, 72 h, read-out: cell viability, A375 GP, 1μΜ): 96.3%; viability at 10 µM ([4]; Homo sapiens, A-375, 72 h, read-out: cell viability, A375 GP, 10μΜ): 3.9%; viability at 1 µM ([5]; Homo sapiens, read-out: cell viability, 501Mel GP, 1μΜ): 109%; viability at 10 µM ([5]; Homo sapiens, read-out: cell viability, 501Mel GP, 10μΜ): -0.074%; viability at 1 µM ([6]; Homo sapiens, IGR-37, 72 h, read-out: cell viability, IGR37 XP, 1μΜ): 85.2%; viability at 10 µM ([6]; Homo sapiens, IGR-37, 72 h, read-out: cell viability, IGR37 XP, 10μΜ): 1.4%
C=CC(=O)Nc1cccc(Sc2nc(Nc3ccc(N4CCN(C)CC4)cc3)ncc2Cl)c1 [WZ8040] | – | – | – | – | – | – | – | – | – | – | – | – | – | – | – | – | – | – | cell viability, A375 XP, 1μΜ [1]: 104.2; cell viability, A375 XP, 10μΜ [1]: 0.5; cell viability, IGR37 Parental, 10μΜ (IGR37 cells (parental); IGR37 Parental, 72 h, in %): 0.328; cell viability, 501Mel Parental, 1μΜ (501Mel cells (parental); 501Mel Parental, 1μΜ, in %): 98.5; cell viability, 501Mel Parental, 10μΜ (501Mel cells (parental); 501Mel Parental, in %): -0.212; cell viability, A375 Parental, 1μΜ (A375 cells (parental)): 97.5; cell viability, A375 Parental, 10μΜ (A375 cells (parental)): 1.4; cell viability, IGR37 GP, 10μΜ [2]: 2.1%; cell viability, IGR37 GP, 1μΜ [2]: 90.2; cell viability, 501Mel XP, 1μΜ [3]: 96.4; cell viability, 501Mel XP, 10μΜ [3]: 0.0442; cell viability, A375 GP, 1μΜ [4]: 98.2; cell viability, A375 GP, 10μΜ [4]: 1.6; cell viability, 501Mel GP, 10μΜ ([5]; 501Mel GP, in %): 0.0662; cell viability, IGR37 XP, 10μΜ [6]: 1.2%; cell viability, IGR37 XP, 1μΜ [6]: 79.2
COC[C@H]1OC(=O)c2coc3c2[C@@]1(C)C1=C(C3=O)[C@@H]2CCC(=O)[C@@]2(C)C[C@H]1OC(C)=O [Wortmannin] | – | 67.6 | 99.5 | 76.3 | – | 57.2 | 77.1 | 109.1 | 22.9 | 97.7 | 91.1 | 23.3 | 103.2 | 72.0 | 95.9 | 51.6 | 26.8 | 96.4 | –
COc1ccc(Cl)c(Nc2nc3ccccc3nc2NS(=O)(=O)c2cccc(NC(=O)C(C)(C)N)c2)c1 [XL147] | 100.4 | 100.4 | – | 90.5 | 95.0 | 91.9 | 88.5 | 99.8 | 88.3 | 103.8 | 93.7 | 83.3 | 91.5 | 84.7 | – | 87.3 | 62.4 | 98.4 | –
CCn1c(=O)c(-c2cc[nH]n2)cc2c(C)nc(N)nc21 [XL765] | 106.1 | – | 100.4 | 106.2 | 93.5 | 98.4 | – | 105.9 | 96.8 | 95.1 | 96.7 | 77.0 | – | 92.4 | 109.6 | 92.1 | 68.4 | – | –
